# Results reported in US20050171195A1, “P2X7 antagonists for treating neuropathic pain” (priority 2003, published 2005).
# Legend:
# P2X7 receptor = target: T1, P2X7 receptor (Homo sapiens, UniProt Q99572); experiment: P2X7 mediated pore formation (YO-PRO dye uptake, FLIPR); format: cell-based; conditions: THP-1 cells
# T1 construct: endogenous in cells; host or cells: THP-1 cells
# T1 sequence (Q99572 1-595): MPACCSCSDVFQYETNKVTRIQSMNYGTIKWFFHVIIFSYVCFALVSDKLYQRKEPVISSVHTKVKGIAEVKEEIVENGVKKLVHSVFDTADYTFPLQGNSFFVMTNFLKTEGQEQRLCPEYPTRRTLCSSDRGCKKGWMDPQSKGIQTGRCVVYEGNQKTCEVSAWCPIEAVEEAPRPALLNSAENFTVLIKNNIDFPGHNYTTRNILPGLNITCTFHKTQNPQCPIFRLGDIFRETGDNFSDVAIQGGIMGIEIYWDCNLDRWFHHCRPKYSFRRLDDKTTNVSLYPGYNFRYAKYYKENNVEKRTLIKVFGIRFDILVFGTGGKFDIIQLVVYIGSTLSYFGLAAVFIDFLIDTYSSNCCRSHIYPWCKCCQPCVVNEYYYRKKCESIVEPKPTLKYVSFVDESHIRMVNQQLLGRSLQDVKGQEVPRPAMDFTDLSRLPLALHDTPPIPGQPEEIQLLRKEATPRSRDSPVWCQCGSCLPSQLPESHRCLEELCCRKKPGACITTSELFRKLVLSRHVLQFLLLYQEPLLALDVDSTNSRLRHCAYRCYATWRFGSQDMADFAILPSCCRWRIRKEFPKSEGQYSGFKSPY
# Protocol: P2X7 Mediated Pore Formation. Activation of the P2X7 receptor induces nonspecific pore formation and eventually cell lysis (Verhoef et al., The Journal of Immunology, Vol. 170, pages 5728-5738, 2003). Accordingly, the inhibitory activity of the antagonists of the present invention was determined by their capacity to inhibit the agonist-induced pore formation using the fluorescent dye YO-PRO (MW=629) and Fluorescence Imaging Plate Reader (FLIPR, Molecular Devices, Sunnydale, Calif.) in THP-1 cells. […] The YO-PRO iodide dye (1 mM in DMSO) was diluted to a final concentration of 2 μM in PBS (w/o Mg^2+ or Ca^2+) and then placed on the cells immediately prior to the agonist addition. Since the THP-1 cells are a non-adherent cell line, the cells were washed in PBS and loaded with the dye in a conical tube prior to spinning the cells onto poly-lysine-coated black-walled 96-well plates, which were utilized to reduce light scattering. […] The intensity of the fluorescence was captured by the CCD camera every 15 seconds for the first 10 minutes of agonist exposure followed by every 20 seconds for an additional 50 minutes with the data being digitally transferred to an interfaced PC. The exposure setting of the camera was 0.25 sec with an f-stop setting of 2. […]
molecule,measurement,setting,value
benzoylbenzoic ATP [BzATP],EC70 value for agonist activation,P2X7 receptor,50 µM
"CC(C)(C)C(NC(=O)Cc1ccc(C#N)cc1)NC(=NC#N)Nc1cccc2ncccc12 (stereo not shown) [Example 41, N-(1-{[(cyanoimino)(5-quinolinylamino)methyl]amino}-2,2-dimethylpropyl)-2-(4-cyanophenyl)acetamide]",melting point,,194.5 to 195.5 °C
"CC(C)(C)C(NC(=O)Cc1ccc(Cl)cc1)NC(=NC#N)Nc1cccc2cnsc12 (stereo not shown) [Example 45, N-(1-{[(1,2-benzisothiazol-7-ylamino)(cyanoimino)methyl]amino}-2,2-dimethylpropyl)-2-(4-chlorophenyl)acetamide]",melting point,,135 to 137 °C
"Cc1ccc2c(NC(=NC#N)NC(NC(=O)Cc3ccc(Cl)cc3)C(C)(C)C)cccc2n1 (stereo not shown) [Example 44, 2-(4-chlorophenyl)-N-[1-({(cyanoimino)[(2-methyl-5-quinolinyl)amino]methyl}amino)-2,2-dimethylpropyl]acetamide]",melting point,,198 to 199 °C
